Test results taken from ChEMBL document CHEMBL1201862, “PubChem BioAssay data set” (2004).
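Grown in 96-well plates, cells were treated for 48 hours with each compound at five concentrations. Insufficient inhibition: endpoint recorded as highest concentration tested. GI50 marks 50% less growth.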 Calls of active or inactive are those of the source. Cut-off read from the data, not from the text of the source: active = GI50 up to about 1.1 µM and inactive = higher.

Legend:
Experiment in all cases: NCI tumour cell line growth inhibition, 48 h
[1] = test system: SF-268
[2] = test system: HCT-15
[3] = test system: RPMI-8226
[4] = test system: SK-MEL-28
[5] = test system: UACC-257
[6] = test system: U-251
[7] = test system: TK-10
[8] = test system: BT-549
[9] = test system: SR
[10] = test system: K562
[11] = test system: SK-MEL-5
[12] = test system: HL-60
[13] = test system: IGROV-1
[14] = test system: UACC-62
[15] = test system: M14
[16] = test system: Malme-3M
[17] = test system: PC-3
[18] = test system: OVCAR-5
[19] = test system: SW-620
[20] = test system: COLO 205
[21] = test system: MDA-MB-435
[22] = test system: HCC 2998
[23] = test system: EKVX
[24] = test system: SNB-19
[25] = test system: ACHN
[26] = test system: NCI-H226
[27] = test system: CAKI-1
[28] = test system: UO-31
[29] = test system: A498
[30] = test system: DU-145
[31] = test system: NCI-H522
[32] = test system: MDA-N
[33] = test system: OVCAR-4
[34] = test system: MCF7
[35] = test system: OVCAR-3
[36] = test system: NCI/ADR-RES
[37] = test system: OVCAR-8
[38] = test system: KM12
[39] = test system: SN12C
[40] = test system: MOLT-4
[41] = test system: NCI-H23
[42] = test system: LOX IMVI
[43] = test system: SF-295
[44] = test system: T47D
[45] = test system: HOP-62
[46] = test system: SK-MEL-2
[47] = test system: Hs-578T
[48] = test system: MDA-MB-231
[49] = test system: A549
[50] = test system: NCI-H460
[51] = test system: CCRF-CEM
[52] = test system: HCT-116
[53] = test system: 786-0
[54] = test system: RXF 393
[55] = test system: HT-29
[56] = test system: SNB-75
[57] = test system: SK-OV-3

SMILES: O=C(COc1ccc(OCC(=O)N/N=C/c2ccc(-c3ccc(Cl)cc3Cl)o2)c(Cl)c1)N/N=C/c1ccc(-c2ccc(Cl)cc2Cl)o1
- GI50 [1]: 41.6 µM (inactive)
- GI50 [2]: > 100 µM
- GI50 [3]: 12.6 µM (inactive)
- GI50 [4]: > 100 µM (inactive)
- GI50 [5]: > 100 µM (inactive)
- GI50 [6]: 46.7 µM (inactive)
- GI50 [7]: > 100 µM (inactive)
- GI50 [8]: 83.9 µM (inactive)
- GI50 [9]: 0.342 µM (active)
- GI50 [10]: 15.3 µM (inactive)
- GI50 [11]: > 100 µM (inactive)
- GI50 [12]: 16.4 µM (inactive)
- GI50 [13]: > 100 µM (inactive)
- GI50 [14]: 27.9 µM (inactive)
- GI50 [15]: > 100 µM (inactive)
- GI50 [16]: 82.8 µM (inactive)
- GI50 [17]: 33.7 µM (inactive)
- GI50 [18]: > 100 µM (inactive)
- GI50 [19]: > 100 µM (inactive)
- GI50 [20]: 0.942 µM (active)
- GI50 [21]: 24.1 µM (inactive)
- GI50 [22]: 29.8 µM (inactive)
- GI50 [23]: 0.142 µM (active)
- GI50 [24]: > 100 µM (inactive)
- GI50 [25]: 70.1 µM (inactive)
- GI50 [26]: 45.7 µM (inactive)
- GI50 [27]: > 100 µM (inactive)
- GI50 [28]: > 100 µM (inactive)
- GI50 [29]: 49.3 µM (inactive)
- GI50 [30]: > 100 µM (inactive)
- GI50 [31]: 81.8 µM (inactive)
- GI50 [32]: 31.6 µM (inactive)
- GI50 [33]: > 100 µM (inactive)
- GI50 [34]: 41.8 µM (inactive)
- GI50 [35]: 49.5 µM (inactive)
- GI50 [36]: 12.3 µM (inactive)
- GI50 [37]: 55.3 µM (inactive)
- GI50 [38]: > 100 µM (inactive)
- GI50 [39]: > 100 µM (inactive)
- GI50 [40]: 0.0298 µM (active)
- GI50 [41]: > 100 µM (inactive)
- GI50 [42]: 57.9 µM (inactive)
- GI50 [43]: 32.2 µM (inactive)
- GI50 [44]: > 100 µM (inactive)
- GI50 [45]: 27.5 µM (inactive)
- GI50 [46]: 17.1 µM (inactive)
- GI50 [47]: 80.2 µM (inactive)
- GI50 [48]: 35 µM (inactive)
- GI50 [49]: 85.5 µM (inactive)
- GI50 [50]: > 100 µM (inactive)
- GI50 [51]: 14.8 µM (inactive)
- GI50 [52]: > 100 µM (inactive)
- GI50 [53]: 94.4 µM (inactive)
- GI50 [54]: 33.6 µM (inactive)
- GI50 [55]: > 100 µM (inactive)

SMILES: Cc1ccc(C)n1-n1c(Cc2ccc(Cl)cc2)n[nH]c1=O
- GI50 [1]: > 100 µM (inactive)
- GI50 [2]: > 100 µM
- GI50 [3]: 33.3 µM (inactive)
- GI50 [4]: > 100 µM (inactive)
- GI50 [5]: 74.8 µM (inactive)
- GI50 [6]: 77.6 µM (inactive)
- GI50 [7]: > 100 µM (inactive)
- GI50 [8]: 71.1 µM (inactive)
- GI50 [9]: 33.2 µM (inactive)
- GI50 [10]: 41.1 µM (inactive)
- GI50 [11]: 51.8 µM (inactive)
- GI50 [13]: > 100 µM (inactive)
- GI50 [56]: > 100 µM (inactive)
- GI50 [14]: > 100 µM (inactive)
- GI50 [15]: > 100 µM (inactive)
- GI50 [16]: 92.5 µM (inactive)
- GI50 [17]: 39.2 µM (inactive)
- GI50 [18]: > 100 µM (inactive)
- GI50 [19]: > 100 µM (inactive)
- GI50 [57]: > 100 µM (inactive)
- GI50 [20]: 83.6 µM (inactive)
- GI50 [21]: > 100 µM (inactive)
- GI50 [23]: 69.5 µM (inactive)
- GI50 [24]: > 100 µM (inactive)
- GI50 [25]: > 100 µM (inactive)
- GI50 [26]: 84.7 µM (inactive)
- GI50 [27]: 90.6 µM (inactive)
- GI50 [28]: 58.7 µM (inactive)
- GI50 [29]: > 100 µM (inactive)
- GI50 [30]: > 100 µM (inactive)
- GI50 [31]: 20.9 µM (inactive)
- GI50 [32]: > 100 µM (inactive)
- GI50 [33]: > 100 µM (inactive)
- GI50 [34]: 90.4 µM (inactive)
- GI50 [35]: 54.5 µM (inactive)
- GI50 [36]: 40.8 µM (inactive)
- GI50 [37]: 77.4 µM (inactive)
- GI50 [38]: 46 µM (inactive)
- GI50 [39]: > 100 µM (inactive)
- GI50 [40]: 29 µM (inactive)
- GI50 [42]: 59.4 µM (inactive)
- GI50 [43]: 66.2 µM (inactive)
- GI50 [44]: 39.9 µM (inactive)
- GI50 [45]: > 100 µM (inactive)
- GI50 [46]: 31 µM (inactive)
- GI50 [47]: > 100 µM (inactive)
- GI50 [48]: > 100 µM (inactive)
- GI50 [49]: 69 µM (inactive)
- GI50 [50]: > 100 µM (inactive)
- GI50 [51]: 36.6 µM (inactive)
- GI50 [52]: 53.3 µM (inactive)
- GI50 [53]: > 100 µM (inactive)
- GI50 [54]: 59.3 µM (inactive)
- GI50 [55]: 73.8 µM (inactive)
